Data on 1 substance can be found in patent publication EP2017288A1, “Protease stabilized, pegylated insulin analogues” (NOVO NORDISK A/S, priority 2007, dated 2009).

This experiment is described as follows: Pulmonary delivery to rats (intratracheal drop instillation). Type of experiment: in vivo, male Wistar rats. The settings on record: statement in words; Fig. 1 is a rat intratracheal drop instillation of the insulin of example 1. On the procedure: The test substance will be dosed pulmonary by the drop instillation method. In brief, male Wistar rats (app.250 g) are anaesthesized in app. […] fentanyl/dehydrodenzperidol/-dormicum given as a 6.6 ml/kg sc primingdose and followed by 3 maintainance doses of 3.3 ml/kg sc with an interval of 30 min. Ten minutes after the induction of anaesthesia, basal samples are obtained from the tail vein (t = -20 min) followed by a basal sample immediately prior to the dosing of test substance (t=0). At t=0, the test substance is dosed intra tracheally into one lung. A special cannula with rounded ending is mounted on a syringe containing the 200 ul air and test substance (1 ml/kg). Via the orifice, the cannula is introduced into the trachea and is forwarded into one of the main bronchi -just passing the bifurcature. During the insertion, the neck is palpated from the exterior to assure intratracheal positioning. The content of the syringe is injected followed by 2 sec pause. Thereafter, the cannula is slowly drawn back. The rats are kept anaesthesized during the test (blood samples for up to 4 or 8 hrs) and are euthanized after the experiment.

In the case of “A14E, B25H, B29K(N^ε-3-mdPEG24-Propionyl), desB30 human insulin [Example 1]”, the pulmonary efficacy entry was “substantial protracted pulmonary efficacy”.
